target: LRRK2 (Homo sapiens, UniProt Q5S007); test: LRRK2 WT assay (Assay B, radiometric 33P-ATP filter binding); type: biochemical; conditions: Assay B (values marked *)
Protocol: LRRK2(human) is incubated with 50 mM HEPES pH 8.0, 0.2 mM EDTA, 0.01% Brij-35, 1% (w/v) BSA, 5 mM DTT, 250 Mm […], 10 mM Magnesium acetate and [[…]]-ATP (specific activity and concentration as required).
The reaction is initiated by the addition of the Mg/ATP mix.

LRRK2, sequence (Q5S007 whole entry): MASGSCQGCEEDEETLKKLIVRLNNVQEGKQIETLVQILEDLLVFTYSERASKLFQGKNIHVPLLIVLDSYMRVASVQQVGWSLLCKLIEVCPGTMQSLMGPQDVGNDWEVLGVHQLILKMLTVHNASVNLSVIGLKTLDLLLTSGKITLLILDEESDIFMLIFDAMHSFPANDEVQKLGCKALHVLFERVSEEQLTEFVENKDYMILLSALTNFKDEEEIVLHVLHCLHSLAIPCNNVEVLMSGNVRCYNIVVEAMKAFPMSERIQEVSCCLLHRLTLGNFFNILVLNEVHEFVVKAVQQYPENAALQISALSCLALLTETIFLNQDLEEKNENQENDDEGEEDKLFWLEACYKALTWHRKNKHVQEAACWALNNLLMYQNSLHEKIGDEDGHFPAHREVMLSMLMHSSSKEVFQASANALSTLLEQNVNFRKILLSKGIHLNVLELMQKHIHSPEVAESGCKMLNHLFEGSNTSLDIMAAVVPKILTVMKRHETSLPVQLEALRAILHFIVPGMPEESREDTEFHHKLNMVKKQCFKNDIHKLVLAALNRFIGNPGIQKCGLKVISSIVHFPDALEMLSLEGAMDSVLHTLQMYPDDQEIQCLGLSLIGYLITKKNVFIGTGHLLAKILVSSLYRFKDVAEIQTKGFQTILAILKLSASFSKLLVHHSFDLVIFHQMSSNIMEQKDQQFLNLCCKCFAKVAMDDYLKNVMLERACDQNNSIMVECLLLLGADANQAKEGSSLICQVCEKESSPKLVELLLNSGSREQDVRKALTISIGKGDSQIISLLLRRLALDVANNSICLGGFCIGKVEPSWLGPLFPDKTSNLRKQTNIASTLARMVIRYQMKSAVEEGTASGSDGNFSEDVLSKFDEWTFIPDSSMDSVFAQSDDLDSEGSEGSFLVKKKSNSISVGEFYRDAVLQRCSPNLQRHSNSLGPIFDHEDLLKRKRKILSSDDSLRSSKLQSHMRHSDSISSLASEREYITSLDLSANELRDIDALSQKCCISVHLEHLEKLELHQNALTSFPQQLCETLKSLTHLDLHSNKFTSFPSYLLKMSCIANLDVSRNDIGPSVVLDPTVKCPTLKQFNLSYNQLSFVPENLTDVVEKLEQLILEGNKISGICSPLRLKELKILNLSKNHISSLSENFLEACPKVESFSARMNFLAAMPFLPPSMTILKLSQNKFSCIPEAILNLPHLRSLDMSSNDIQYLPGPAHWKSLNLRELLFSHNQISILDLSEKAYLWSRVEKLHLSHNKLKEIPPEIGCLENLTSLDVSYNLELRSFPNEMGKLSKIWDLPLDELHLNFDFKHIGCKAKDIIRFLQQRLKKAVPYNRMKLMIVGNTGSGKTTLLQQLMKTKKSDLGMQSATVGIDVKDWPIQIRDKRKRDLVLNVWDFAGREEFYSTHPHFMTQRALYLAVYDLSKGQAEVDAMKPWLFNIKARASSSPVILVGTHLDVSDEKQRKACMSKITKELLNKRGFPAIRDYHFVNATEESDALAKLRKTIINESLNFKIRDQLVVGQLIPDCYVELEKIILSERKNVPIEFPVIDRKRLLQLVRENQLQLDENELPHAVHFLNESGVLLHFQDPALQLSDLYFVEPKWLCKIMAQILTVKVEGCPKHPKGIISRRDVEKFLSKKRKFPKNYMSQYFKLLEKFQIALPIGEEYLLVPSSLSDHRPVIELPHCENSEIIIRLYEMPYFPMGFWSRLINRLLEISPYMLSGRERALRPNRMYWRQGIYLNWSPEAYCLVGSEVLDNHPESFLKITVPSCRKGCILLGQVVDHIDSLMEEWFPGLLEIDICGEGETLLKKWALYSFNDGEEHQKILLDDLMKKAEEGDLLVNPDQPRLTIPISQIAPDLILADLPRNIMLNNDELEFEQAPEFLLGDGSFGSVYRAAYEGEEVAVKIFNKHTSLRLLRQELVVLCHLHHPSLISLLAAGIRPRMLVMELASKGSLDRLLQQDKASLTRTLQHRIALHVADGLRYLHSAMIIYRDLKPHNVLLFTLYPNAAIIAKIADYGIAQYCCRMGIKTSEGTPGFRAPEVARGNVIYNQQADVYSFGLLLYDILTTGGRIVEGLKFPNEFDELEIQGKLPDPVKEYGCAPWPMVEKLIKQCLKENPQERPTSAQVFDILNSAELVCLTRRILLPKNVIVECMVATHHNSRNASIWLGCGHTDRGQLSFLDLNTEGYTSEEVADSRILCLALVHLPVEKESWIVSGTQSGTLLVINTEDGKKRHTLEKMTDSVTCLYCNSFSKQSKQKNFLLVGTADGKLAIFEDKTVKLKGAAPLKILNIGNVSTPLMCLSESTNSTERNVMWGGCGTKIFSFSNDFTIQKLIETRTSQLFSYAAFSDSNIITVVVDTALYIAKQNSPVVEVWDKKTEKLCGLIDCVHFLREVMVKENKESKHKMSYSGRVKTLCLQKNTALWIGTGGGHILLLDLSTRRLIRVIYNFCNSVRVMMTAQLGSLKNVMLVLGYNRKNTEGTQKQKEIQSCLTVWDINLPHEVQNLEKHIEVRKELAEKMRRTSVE

| Structure (SMILES) | IC50 [nM] |
| --- | --- |
| C[C@@H]1COCC[C@H]1n1c(C#N)cc2cnc(Nc3cn(C)nc3OC3COC3)nc21 (single isomer, unassigned) [Example 83, 2-((1-methyl-3-(oxetan-3-yloxy)-1 H-pyrazol-4-yl)amino)-7-((trans)-3-methyltetrahydro-2H-pyran-4-yl)-7H-pyrrolo[2,3-d]pyrimidine-6-carbonitrile] | 134 |
| C[C@@H]1COCC[C@H]1n1c(C#N)cc2cnc(Nc3cn(C)nc3OC3COC3)nc21 (single isomer, unassigned) [Example 84, 2-((1-methyl-3-(oxetan-3-yloxy)-1 H-pyrazol-4-yl)amino)-7-((trans)-3-methyltetrahydro-2H-pyran-4-yl)-7H-pyrrolo[2,3-d]pyrimidine-6-carbonitrile] | 7 |
| CC1COCCC1n1c(C#N)cc2cnc(Nc3cn(C)nc3OC3COC3)nc21 (single isomer, unassigned) [Example 85, ((1-methyl-3-(oxetan-3-yloxy)-1 H-pyrazol-4-yl)amino)-7-((cis)-3-methyltetrahydro-2H-pyran-4-yl)-7H-pyrrolo[2,3-d]pyrimidine-6-carbonitrile] | 41 |
| CC1COCCC1n1c(C#N)cc2cnc(Nc3cn(C)nc3OC3COC3)nc21 (single isomer, unassigned) [Example 86, ((1-methyl-3-(oxetan-3-yloxy)-1 H-pyrazol-4-yl)amino)-7-((cis)-3-methyltetrahydro-2H-pyran-4-yl)-7H-pyrrolo[2,3-d]pyrimidine-6-carbonitrile] | 435 |
| CO[C@H]1COC[C@H]1n1c(C#N)cc2cnc(Nc3cn(C(C)C#N)nc3OC3CC3)nc21 (stereo partly drawn) [Example 58, 2-((1-(1-Cyanoethyl)-3-cyclopropoxy-1H-pyrazol-4-yl)amino)-7-((3R,4R)-4-methoxytetrahydrofuran-3-yl)-7H-pyrrolo[2,3-d]pyrimidine-6-carbonitrile] | 15 |
| CO[C@H]1COC[C@H]1n1c(C#N)cc2cnc(Nc3cn(C(C)(C)C#N)nc3OC3CC3)nc21 [Example 59, 2-((1-(2-Cyanopropan-2-yl)-3-cyclopropoxy-1H-pyrazol-4-yl)amino)-7-((3R,4R)-4-methoxytetrahydrofuran-3-yl)-7H-pyrrolo[2,3-d]pyrimidine-6-carbonitrile] | 31 |
| CO[C@H]1COC[C@H]1n1c(C#N)cc2cnc(Nc3cn(C(C)(C)C#N)nc3OC(C)C)nc21 [Example 60, 2-((1-(2-Cyanopropan-2-yl)-3-isopropoxy-1H-pyrazol-4-yl)amino)-7-((3R,4R)-4-methoxytetrahydrofuran-3-yl)-7H-pyrrolo[2,3-d]pyrimidine-6-carbonitrile] | 42 |
| CO[C@H]1COC[C@H]1n1c(C#N)cc2cnc(Nc3cn(C(C)C)nc3OC3CC3)nc21 [Example 61, 2-((3-Cyclopropoxy-1-isopropyl-1H-pyrazol-4-yl)amino)-7-((3R,4R)-4-methoxytetrahydrofuran-3-yl)-7H-pyrrolo[2,3-d]pyrimidine-6-carbonitrile] | 133 |
| CO[C@H]1COC[C@H]1n1c(C#N)cc2cnc(Nc3cn(C)nc3OC(C)C)nc21 [Example 62, 2-((3-Isopropoxy-1-methyl-1H-pyrazol-4-yl)amino)-7-((3R,4R)-4-methoxytetrahydrofuran-3-yl)-7H-pyrrolo[2,3-d]pyrimidine-6-carbonitrile] | 114 |
| CO[C@H]1COC[C@H]1n1c(C#N)cc2cnc(Nc3cn(C4COC4)nc3OC(C)C)nc21 [Example 63, 2-((3-Isopropoxy-1-(oxetan-3-yl)-1H-pyrazol-4-yl)amino)-7-((3R,4R)-4-methoxytetrahydrofuran-3-yl)-7H-pyrrolo[2,3-d]pyrimidine-6-carbonitrile] | 201 |
| CO[C@H]1COC[C@H]1n1c(C#N)cc2cnc(Nc3cn(C4COC4)nc3OC3CC3)nc21 [Example 64, 2-((3-Cyclopropoxy-1-(oxetan-3-yl)-1H-pyrazol-4-yl)amino)-7-((3R,4R)-4-methoxytetrahydrofuran-3-yl)-7H-pyrrolo[2,3-d]pyrimidine-6-carbonitrile] | 135 |
| CO[C@H]1COC[C@H]1n1c(C#N)cc2cnc(Nc3cn(C)nc3OC3CC(F)(F)C3)nc21 [Example 65, 2-((3-(3,3-Difluorocyclobutoxy)-1-methyl-1H-pyrazol-4-yl)amino)-7-((3R,4R)-4-methoxytetrahydrofuran-3-yl)-7H-pyrrolo[2,3-d]pyrimidine-6-carbonitrile] | 187 |
| CC[C@@H](C)Oc1nn(C)cc1Nc1ncc2cc(C#N)n([C@@H]3COC[C@@H]3OC)c2n1 [Example 66, 2-((3-((R)-sec-Butoxy)-1-methyl-1H-pyrazol-4-yl)amino)-7-((3R,4R)-4-methoxytetrahydrofuran-3-yl)-7H-pyrrolo[2,3-d]pyrimidine-6-carbonitrile] | 119 |
| CC[C@H](C)Oc1nn(C)cc1Nc1ncc2cc(C#N)n([C@@H]3COC[C@@H]3OC)c2n1 [Example 67, 2-((3-((S)-sec-Butoxy)-1-methyl-1H-pyrazol-4-yl)amino)-7-((3R,4R)-4-methoxytetrahydrofuran-3-yl)-7H-pyrrolo[2,3-d]pyrimidine-6-carbonitrile] | 297 |
| CO[C@H]1COC[C@H]1n1c(C#N)cc2cnc(Nc3ccnc4c3OC(C)(C)CC4)nc21 [Example 68, 2-((2,2-Dimethyl-3,4-dihydro-2H-pyrano[3,2-b]pyridin-8-yl)amino)-7-((3R,4R)-4-methoxytetrahydrofuran-3-yl)-7H-pyrrolo[2,3-d]pyrimidine-6-carbonitrile] | > 1000 |
| CO[C@H]1COC[C@H]1n1c(C#N)cc2cnc(Nc3ccnc4c3O[C@H](C)CCO4)nc21 [Example 69, 7-((3R,4R)-4-Methoxytetrahydrofuran-3-yl)-2-(((R)-2-methyl-3,4-dihydro-2H-[1,4]dioxepino[2,3-b]pyridin-9-yl)amino)-7H-pyrrolo[2,3-d]pyrimidine-6-carbonitrile] | 597 |
| CC(C)Oc1nn(C)cc1Nc1ncc2cc(C#N)n(C3COC3)c2n1 [Example 75, 2-((3-Isopropoxy-1-methyl-1 H-pyrazol-4-yl)amino)-7-(oxetan-3-yl)-7H-pyrrolo[2,3-d]pyrimidine-6-carbonitrile] | 44 |
| [2H]c1c(Nc2ncc3cc(C#N)n([C@H]4COC[C@@H]4C)c3n2)c(OC2COC2)nn1C [Example 94, 2-((1-Methyl-3-(oxetan-3-yloxy)-1 H-pyrazol-4-yl-5-d)amino)-7-((3R,4R)-4-methyltetrahydrofuran-3-yl)-7H-pyrrolo[2,3-d]pyrimidine-6-carbonitrile] | 7 |
| [2H]c1c(Nc2ncc3cc(C#N)n([C@@H](C)COC)c3n2)c(OC2CC2)nn1COC [Example 95, (S)-2-((3-cyclopropoxy-1-(methoxymethyl)-1H-pyrazol-4-yl-5-d)amino)-7-(1-methoxypropan-2-yl)-7H-pyrrolo[2,3-d]pyrimidine-6-carbonitrile] | 16 |
| [2H]c1c(Nc2ncc3cc(C#N)n([C@H]4COC[C@@H]4C)c3n2)c(OC2COC2C)nn1C (stereo partly drawn) [Example 97, 2-((1-methyl-3-((2-methyloxetan-3-yl)oxy)-1H-pyrazol-4-yl-5-d)amino)-7-((3R,4R)-4-methyltetrahydrofuran-3-yl)-7H-pyrrolo[2,3-d]pyrimidine-6-carbonitrile] | 12 |
| [2H]c1c(Nc2ncc3cc(C#N)n([C@H]4COC[C@@H]4C)c3n2)c(OC2COC2)nn1C([2H])([2H])[2H] [Example 98, 2-((1-(methyl-d3)-3-(oxetan-3-yloxy)-1H-pyrazol-4-yl-5-d)amino)-7-((3R,4R)-4-methyltetrahydrofuran-3-yl)-7H-pyrrolo[2,3-d]pyrimidine-6-carbonitrile] | 12 |

From patent US20240383901A1, “SUBSTITUTED PYRROLO[2,3-D]PYRIMIDINES, THEIR PREPARATION AND THEIR THERAPEUTIC APPLICATION” (SANOFI, priority 2021, published 2024)
